Measurements reported in patent publication US9487510B2, “Substituted heterocyclic acetamides as kappa opioid receptor (KOR) agonists” (Dr. Reddy's Laboratories Ltd., priority 2012, dated 2016).
pEC50: −log10 of the molar value.

What follows are molecules tested against human KOR receptor (Homo sapiens, UniProt P41145) (assay: IP-One HTRF assay, potency of KOR agonists, dose-response in transiently transfected COS-7 cells).
Chain of human KOR receptor (P41145 whole entry): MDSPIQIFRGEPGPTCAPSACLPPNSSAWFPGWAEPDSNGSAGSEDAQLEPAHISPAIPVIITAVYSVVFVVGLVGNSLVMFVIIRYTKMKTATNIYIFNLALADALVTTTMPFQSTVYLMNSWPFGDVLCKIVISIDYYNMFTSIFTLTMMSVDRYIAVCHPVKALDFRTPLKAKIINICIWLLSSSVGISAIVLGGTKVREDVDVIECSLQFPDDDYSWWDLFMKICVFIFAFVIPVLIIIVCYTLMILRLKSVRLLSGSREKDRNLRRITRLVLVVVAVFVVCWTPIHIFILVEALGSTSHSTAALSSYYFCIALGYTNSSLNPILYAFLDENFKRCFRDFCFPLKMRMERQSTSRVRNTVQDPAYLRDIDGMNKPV
Type: cell-based
For CN(C(=O)Cc1ccc2sc(=O)[nH]c2c1)[C@H](CN1CC[C@H](O)C1)c1cccc(-c2ncc[nH]2)c1 [Example 191, N-((S)-1-(3-(1H-imidazol-2-yl)phenyl)-2-((S)-3-hydroxypyrrolidin-1-yl)ethyl)-N-methyl-2-(2-oxo-2,3-dihydrobenzo[d]thiazol-5-yl)acetamide], the pEC50 was no less than 7.30. CN(C(=O)Cc1ccc2sc(=O)[nH]c2c1)[C@H](CN1CC[C@H](O)C1)c1cccc(-c2nccs2)c1 [Example 192, N-((S)-2-((S)-3-hydroxypyrrolidin-1-yl)-1-(3-(thiazol-2-yl)phenyl)ethyl)-N-methyl-2-(2-oxo-2,3-dihydrobenzo[d]thiazol-5-yl)acetamide] gave a pEC50 of 6.00 to 7.00. With Cc1nc(-c2cccc([C@@H](CN3CC[C@H](O)C3)N(C)C(=O)Cc3ccc4ncc(=O)[nH]c4c3)c2)no1 [Example 194, N-((S)-2-((S)-3-hydroxypyrrolidin-1-yl)-1-(3-(5-methyl-1,2,4-oxadiazol-3-yl)phenyl)ethyl)-N-methyl-2-(3-oxo-3,4-dihydroquinoxalin-6-yl)acetamide] the pEC50 was no less than 7.30. For CN(C(=O)Cc1ccc2c(c1)NS(=O)(=O)C2)[C@H](CN1CC[C@H](O)C1)c1cccc(C(=O)NCC(F)(F)F)c1 [Example 195, 3-((S)-1-(2-(2,2-dioxido-1,3-dihydrobenzo[c]isothiazol-6-yl)-N-methylacetamido)-2-((S)-3-hydroxypyrrolidin-1-yl)ethyl)-N-(2,2,2-trifluoroethyl)benzamide], the pEC50 was no less than 7.30. CN(C(=O)Cc1ccc2ncc(=O)[nH]c2c1)[C@H](CN1CC[C@H](O)C1)c1cccc(C(=O)NCC(F)(F)F)c1 [Example 196, 3-((S)-2-((S)-3-hydroxypyrrolidin-1-yl)-1-(N-methyl-2-(3-oxo-3,4-dihydroquinoxalin-6-yl)acetamido)ethyl)-N-(2,2,2-trifluoroethyl)benzamide] gave a pEC50 of no less than 7.30. Work on CN(C(=O)Cc1ccc2c(c1)NC(=O)C2)[C@H](CN1CC[C@H](O)C1)c1cc(F)cc(C#N)c1 [Example 197, N-((S)-1-(3-cyano-5-fluorophenyl)-2-((S)-3-hydroxypyrrolidin-1-yl)ethyl)-N-methyl-2-(2-oxoindolin-6-yl)acetamide] yielded a pEC50 of 7.00 to 7.29. For CN(C(=O)Cc1ccc2c(c1)NC(=O)C2)[C@H](CN1CC[C@H](O)C1)c1cccc(-c2ncc[nH]2)c1 [Example 198, N-((S)-1-(3-(1H-imidazol-2-yl)phenyl)-2-((S)-3-hydroxypyrrolidin-1-yl)ethyl)-N-methyl-2-(2-oxoindolin-6-yl)acetamide 2,2,2-trifluoroacetate], the pEC50 was no less than 7.30. CN(C(=O)Cc1ccc2c(c1)NS(=O)(=O)C2)[C@H](CN1CC[C@H](O)C1)c1cc(F)cc(C#N)c1 [Example 199, N-((S)-1-(3-cyano-5-fluorophenyl)-2-((S)-3-hydroxypyrrolidin-1-yl)ethyl)-2-(2,2-dioxido-1,3-dihydrobenzo[c]isothiazol-6-yl)-N-methylacetamide] showed a pEC50 of no less than 7.30. Molecule CN(C(=O)Cc1ccc2ncc(=O)[nH]c2c1)[C@H](CN1CC[C@H](O)C1)c1cc(F)cc(C#N)c1 [Example 200, N-((S)-1-(3-cyano-5-fluorophenyl)-2-((S)-3-hydroxypyrrolidin-1-yl)ethyl)-N-methyl-2-(3-oxo-3,4-dihydroquinoxalin-6-yl)acetamide] has a pEC50 of no less than 7.30. For C#Cc1cccc([C@@H](CN2CC[C@H](O)C2)N(C)C(=O)Cc2ccc3c(c2)NC(=O)CS3(=O)=O)c1 [Example 201, 2-(1,1-dioxido-3-oxo-3,4-dihydro-2H-benzo[b][1,4]thiazin-6-yl)-N-((S)-1-(3-ethynylphenyl)-2-((S)-3-hydroxypyrrolidin-1-yl)ethyl)-N-methylacetamide], the pEC50 was no less than 7.30. CN(C(=O)Cc1ccc2c(c1)NS(=O)(=O)C2)[C@H](CN1CC[C@H](O)C1)c1cccc(-c2ncc[nH]2)c1 [Example 202, N-((S)-1-(3-(1H-imidazol-2-yl)phenyl)-2-((S)-3-hydroxypyrrolidin-1-yl)ethyl)-2-(2,2-dioxido-1,3-dihydrobenzo[c]isothiazol-6-yl)-N-methylacetamide] showed a pEC50 of 7.00 to 7.29. For CN(C(=O)Cc1ccc2c(c1)NS(=O)(=O)C2)[C@H](CN1CC[C@H](O)C1)c1cccc(C#N)c1 [Example 203, N-((S)-1-(3-cyanophenyl)-2-((S)-3-hydroxypyrrolidin-1-yl)ethyl)-2-(2,2-dioxido-1,3-dihydrobenzo[c]isothiazol-6-yl)-N-methylacetamide], the pEC50 was no less than 7.30. Work on CCC#Cc1cccc([C@@H](CN2CC[C@H](O)C2)N(C)C(=O)Cc2ccc3c(c2)NC(=O)C3)c1 [Example 204, N-((S)-1-(3-(but-1-yn-1-yl)phenyl)-2-((S)-3-hydroxypyrrolidin-1-yl)ethyl)-N-methyl-2-(2-oxoindolin-6-yl)acetamide] yielded a pEC50 of no less than 7.30. With CCC#Cc1cccc([C@@H](CN2CC[C@H](O)C2)N(C)C(=O)Cc2ccc3sc(=O)[nH]c3c2)c1 [Example 205, N-((S)-1-(3-(but-1-yn-1-yl)phenyl)-2-((S)-3-hydroxypyrrolidin-1-yl)ethyl)-N-methyl-2-(2-oxo-2,3-dihydrobenzo[d]thiazol-5-yl)acetamide] the pEC50 was no less than 7.30. For CCC#Cc1cccc([C@@H](CN2CC[C@H](O)C2)N(C)C(=O)Cc2ccc3ncc(=O)[nH]c3c2)c1 [Example 206, N-((S)-1-(3-(but-1-yn-1-yl)phenyl)-2-((S)-3-hydroxypyrrolidin-1-yl)ethyl)-N-methyl-2-(3-oxo-3,4-dihydroquinoxalin-6-yl)acetamide], the pEC50 was no less than 7.30. For CN(C)C(=O)c1cccc([C@@H](CN2CC[C@H](O)C2)N(C)C(=O)Cc2ccc3c(c2)NC(=O)C3)c1 [Example 207, 3-((S)-2-((S)-3-hydroxypyrrolidin-1-yl)-1-(N-methyl-2-(2-oxoindolin-6-yl)acetamido)ethyl)-N,N-dimethylbenzamide], the pEC50 was no less than 7.30. Work on CCN(CC)C(=O)c1cccc([C@@H](CN2CC[C@H](O)C2)N(C)C(=O)Cc2ccc3c(c2)NS(=O)(=O)C3)c1 [Example 208, 3-((S)-1-(2-(2,2-dioxido-1,3-dihydrobenzo[c]isothiazol-6-yl)-N-methylacetamido)-2-((S)-3-hydroxypyrrolidin-1-yl)ethyl)-N,N-diethylbenzamide] yielded a pEC50 of no less than 7.30. Molecule CCN(CC)C(=O)c1cccc([C@@H](CN2CC[C@H](O)C2)N(C)C(=O)Cc2ccc3ncc(=O)[nH]c3c2)c1 [Example 209, N,N-diethyl-3-((S)-2-((S)-3-hydroxypyrrolidin-1-yl)-1-(N-methyl-2-(3-oxo-3,4-dihydroquinoxalin-6-yl)acetamido)ethyl)benzamide 2,2,2-trifluoroacetate] has a pEC50 of no less than 7.30. CN(C)C(=O)c1cccc([C@@H](CN2CC[C@H](O)C2)N(C)C(=O)Cc2ccc3c(c2)NS(=O)(=O)C3)c1 [Example 210, 3-((S)-1-(2-(2,2-dioxido-1,3-dihydrobenzo[c]isothiazol-6-yl)-N-methylacetamido)-2-((S)-3-hydroxypyrrolidin-1-yl)ethyl)-N,N-dimethylbenzamide] was tested, and the pEC50 was no less than 7.30. Work on CN(C)C(=O)c1cccc([C@@H](CN2CC[C@H](O)C2)N(C)C(=O)Cc2ccc3ncc(=O)[nH]c3c2)c1 [Example 211, 3-((S)-2-((S)-3-hydroxypyrrolidin-1-yl)-1-(N-methyl-2-(3-oxo-3,4-dihydroquinoxalin-6-yl)acetamido)ethyl)-N,N-dimethylbenzamide] yielded a pEC50 of no less than 7.30.
